# Measured values as given in patent US20250312352A1, “GLP-1R MODULATING COMPOUNDS” (Gilead Sciences, Inc., priority 2021, published 2025).
# Molecular target: T1, GLP-1R (Homo sapiens, UniProt P43220)
# T1 construct: host or cells: CHO cells
# Experiment: GLP-1R activation cAMP assay (Assay 1 or Assay 2)
# Format: cell-based
# Settings: cAMP increase in CHO cells stably expressing GLP-1R; compounds run on one of the two cAMP assays
# Outline: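 CHO cells stably expressing human GLP-1R were incubated 1 h in HBSS/20 mM HEPES/0.1% BSA, then exposed to 10-point agonist dilutions for 30 min at 37 °C. cAMP increase was measured with an HTRF Gs dynamic kit; EC50 from sigmoidal fit of response versus log concentration.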
# T1 sequence (P43220 24-463): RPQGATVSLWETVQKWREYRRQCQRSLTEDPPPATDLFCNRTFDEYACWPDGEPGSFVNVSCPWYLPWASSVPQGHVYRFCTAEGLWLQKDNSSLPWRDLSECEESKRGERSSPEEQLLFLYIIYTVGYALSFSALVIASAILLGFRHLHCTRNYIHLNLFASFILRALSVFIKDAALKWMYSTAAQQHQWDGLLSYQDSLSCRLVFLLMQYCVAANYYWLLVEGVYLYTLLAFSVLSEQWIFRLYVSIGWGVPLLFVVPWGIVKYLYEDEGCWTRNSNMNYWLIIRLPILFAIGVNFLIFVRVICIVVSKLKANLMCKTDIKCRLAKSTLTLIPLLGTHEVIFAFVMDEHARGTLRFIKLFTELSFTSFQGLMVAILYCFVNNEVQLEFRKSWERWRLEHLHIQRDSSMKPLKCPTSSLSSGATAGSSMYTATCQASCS
row,Structure (SMILES),EC50 [nM]
1,"O=C(O)c1ccc2nc(Cc3cc(F)c(-c4cccc(OCc5ncc(-c6ccns6)s5)n4)cc3F)n(C[C@@H]3CCO3)c2c1 [Example 100, (S)-2-(2,5-difluoro-4-(6-((5-(isothiazol-5-yl)thiazol-2-yl)methoxy)pyridin-2-yl)benzyl)-1-(oxetan-2-ylmethyl)-1H-benzo[d]imidazole-6-carboxylic acid]",0.09
2,"Cn1cc(-c2cnc(COc3nc(-c4cc(F)c(Cc5nc6c(F)cc(C(=O)O)cc6n5C[C@@H]5CCO5)cc4F)ccc3F)s2)cn1 [Example 98, (S)-2-(2,5-difluoro-4-(5-fluoro-6-((5-(1-methyl-1H-pyrazol-4-yl)thiazol-2-yl)methoxy)pyridin-2-yl)benzyl)-4-fluoro-1-(oxetan-2-ylmethyl)-1H-benzo[d]imidazole-6-carboxylic acid]",0.03
3,"Cn1nccc1COc1cccc(-c2cc(F)c(Cc3nc4ccc(C(=O)O)cc4n3C[C@@H]3CCO3)cc2F)n1 [Example 36, (S)-2-(2,5-difluoro-4-(6-((1-methyl-1H-pyrazol-5-yl)methoxy)pyridin-2-yl)benzyl)-1-(oxetan-2-ylmethyl)-1H-benzo[d]imidazole-6-carboxylic acid]",5.28
4,"Cn1nc(COc2cccc(-c3cc(F)c(Cc4nc5ccc(C(=O)O)cc5n4C[C@@H]4CCO4)cc3F)n2)cc1CC#N [Example 37, (S)-2-(4-(6-((5-(cyanomethyl)-1-methyl-1H-pyrazol-3-yl)methoxy)pyridin-2-yl)-2,5-difluorobenzyl)-1-(oxetan-2-ylmethyl)-1H-benzo[d]imidazole-6-carboxylic acid]",8.46
5,"O=C(O)c1ccc2nc(Cc3cc(F)c(-c4cccc(OCc5nc(C(F)(F)F)cs5)n4)cc3F)n(C[C@@H]3CCO3)c2c1 [Example 53, (S)-2-(2,5-difluoro-4-(6-((4-(trifluoromethyl)thiazol-2-yl)methoxy)pyridin-2-yl)benzyl)-1-(oxetan-2-ylmethyl)-1H-benzo[d]imidazole-6-carboxylic acid]",0.38
6,"O=C(O)c1ccc2nc(Cc3cc(F)c(-c4cccc(OCc5ncc(C#Cc6cncs6)s5)n4)cc3F)n(C[C@@H]3CCO3)c2c1 [Example 116, (S)-2-(2,5-difluoro-4-(6-((5-(thiazol-5-ylethynyl)thiazol-2-yl)methoxy)pyridin-2-yl)benzyl)-1-(oxetan-2-ylmethyl)-1H-benzo[d]imidazole-6-carboxylic acid]",0.15
7,"Cn1cc(C#Cc2cnc(COc3cccc(-c4cc(F)c(Cc5nc6c(F)cc(C(=O)O)cc6n5C[C@@H]5CCO5)cc4F)n3)s2)cn1 [Example 111, 2-[[2,5-difluoro-4-[6-[[5-[2-(1-methylpyrazol-4-yl)ethynyl]thiazol-2-yl]methoxy]-2-pyridyl]phenyl]methyl]-7-fluoro-3-[[(2S)-oxetan-2-yl]methyl]benzimidazole-5-carboxylic acid]",0.05
8,"N#Cc1cnc(COc2cccc(-c3cc(F)c(Cc4nc5ccc(C(=O)O)cc5n4C[C@@H]4CCO4)cc3F)n2)s1 [Example 2, (S)-2-(4-(6-((5-cyanothiazol-2-yl)methoxy)pyridin-2-yl)-2,5-difluorobenzyl)-1-(oxetan-2-ylmethyl)-1H-benzo[d]imidazole-6-carboxylic acid]",0.11
9,"Cn1cc(C#Cc2cc(F)c(COc3cccc(-c4cc(F)c(Cc5nc6ccc(C(=O)O)cc6n5C[C@@H]5CCO5)cc4F)n3)cn2)cn1 [Example 144, (S)-2-(2,5-difluoro-4-(6-((4-fluoro-6-((1-methyl-1H-pyrazol-4-yl)ethynyl)pyridin-3-yl)methoxy)pyridin-2-yl)benzyl)-1-(oxetan-2-ylmethyl)-1H-benzo[d]imidazole-6-carboxylic acid]",0.99
10,"O=C(O)c1ccc2nc(Cc3cc(F)c(-c4cccc(OCc5ccc(C#Cc6ccncc6)cc5F)n4)cc3F)n(C[C@@H]3CCO3)c2c1 [Example 140, (S)-2-(2,5-difluoro-4-(6-((2-fluoro-4-(pyridin-4-ylethynyl)benzyl)oxy)pyridin-2-yl)benzyl)-1-(oxetan-2-ylmethyl)-1H-benzo[d]imidazole-6-carboxylic acid]",0.4

# More lines, now with the values ahead:
row,EC50 [nM],Structure (SMILES)
1,0.57,"O=C(O)c1ccc2nc(Cc3cc(F)c(-c4cccc(OCc5cnc(C(=O)NC6CCC6)cc5F)n4)cc3F)n(C[C@@H]3CCO3)c2c1 [Example 246, (S)-2-(4-(6-((6-(cyclobutylcarbamoyl)-4-fluoropyridin-3-yl)methoxy)pyridin-2-yl)-2,5-difluorobenzyl)-1-(oxetan-2-ylmethyl)-1H-benzo[d]imidazole-6-carboxylic acid]"
2,0.099,"O=C(O)c1cc(F)c2nc(Cc3cc(F)c(-c4cccc(OCc5ncc(C(F)(F)F)s5)n4)cc3F)n(CC3(CF)CC3)c2c1 [Example 412, 2-(2,5-difluoro-4-(6-((5-(trifluoromethyl)thiazol-2-yl)methoxy)pyridin-2-yl)benzyl)-4-fluoro-1-((1-(fluoromethyl)cyclopropyl)methyl)-1H-benzo[d]imidazole-6-carboxylic acid]"
3,0.105,"CC1(C)COCC1n1c(Cc2cc(F)c(-c3cccc(OCc4ncc(C(F)(F)F)s4)n3)cc2F)nc2c(F)cc(C(=O)O)cc21 (stereo not drawn) [Example 437, 2-(2,5-difluoro-4-(6-((5-(trifluoromethyl)thiazol-2-yl)methoxy)pyridin-2-yl)benzyl)-1-(4,4-dimethyltetrahydrofuran-3-yl)-4-fluoro-1H-benzo[d]imidazole-6-carboxylic acid]"
4,0.295,"Cn1cc(C#Cc2ccc(COc3cccc(-c4cc(F)c(Cc5nc6ccc(C(=O)O)cc6n5C[C@@H]5CCO5)cc4F)n3)c(Cl)n2)cn1 [Example 363, (S)-2-(4-(6-((2-chloro-6-((1-methyl-1H-pyrazol-4-yl)ethynyl)pyridin-3-yl)methoxy)pyridin-2-yl)-2,5-difluorobenzyl)-1-(oxetan-2-ylmethyl)-1H-benzo[d]imidazole-6-carboxylic acid]"
5,0.1,"Cn1cc(C#Cc2ccc(COc3cccc(-c4cc(F)c(Cc5nc6c(F)cc(C(=O)O)cc6n5C[C@@H]5CCO5)cc4F)n3)c(F)c2)cn1 [Example 151, (S)-2-(2,5-difluoro-4-(6-((2-fluoro-4-((1-methyl-1H-pyrazol-4-yl)ethynyl)benzyl)oxy)pyridin-2-yl)benzyl)-4-fluoro-1-(oxetan-2-ylmethyl)-1H-benzo[d]imidazole-6-carboxylic acid]"
6,0.067,"Cn1nncc1C#Cc1cnc(COc2cccc(-c3cc(F)c(Cc4nc5ccc(C(=O)O)cc5n4C[C@@H]4CCO4)cc3F)n2)c(F)c1 [Example 288, (S)-2-(2,5-difluoro-4-(6-((3-fluoro-5-((1-methyl-1H-1,2,3-triazol-5-yl)ethynyl)pyridin-2-yl)methoxy)pyridin-2-yl)benzyl)-1-(oxetan-2-ylmethyl)-1H-benzo[d]imidazole-6-carboxylic acid]"
7,0.341,"Cn1cc(C#Cc2ccc(COc3cccc(-c4cc(F)c(Cc5nc6ccc(C(=O)O)cc6n5C[C@@H]5CCO5)cc4F)n3)c(F)c2)nn1 [Example 301, (S)-2-(2,5-difluoro-4-(6-((2-fluoro-4-((1-methyl-1H-1,2,3-triazol-4-yl)ethynyl)benzyl)oxy)pyridin-2-yl)benzyl)-1-(oxetan-2-ylmethyl)-1H-benzo[d]imidazole-6-carboxylic acid]"
8,8.61,"N#CCn1ccc(COc2cccc(-c3cc(F)c(Cc4nc5ccc(C(=O)O)cc5n4C[C@@H]4CCO4)cc3F)n2)n1 [Example 238, 2-[[4-[6-[[1-(cyanomethyl)pyrazol-3-yl]methoxy]-2-pyridyl]-2,5-difluoro-phenyl]methyl]-3-[[(2S)-oxetan-2-yl]methyl]benzimidazole-5-carboxylic acid]"
9,11.8,"O=C(O)c1ccc2nc(Cc3cc(F)c(-c4cccc(OCc5cnco5)n4)cc3F)n(C[C@@H]3CCO3)c2c1 [Example 169, (S)-2-(2,5-difluoro-4-(6-(oxazol-5-ylmethoxy)pyridin-2-yl)benzyl)-1-(oxetan-2-ylmethyl)-1H-benzo[d]imidazole-6-carboxylic acid]"
10,5.99,"O=C(O)c1ccc2nc(Cc3cc(F)c(-c4cccc(OCc5cc[nH]n5)n4)cc3F)n(C[C@@H]3CCO3)c2c1 [Example 181, (S)-2-(4-(6-((1H-pyrazol-3-yl)methoxy)pyridin-2-yl)-2,5-difluorobenzyl)-1-(oxetan-2-ylmethyl)-1H-benzo[d]imidazole-6-carboxylic acid]"
11,0.508,"Cn1ccc(C#Cc2ccc(COc3cccc(-c4cc(F)c(Cc5nc6ccc(C(=O)O)cc6n5C[C@@H]5CCO5)cc4F)n3)c(F)c2)cc1=O [Example 357, (S)-2-(2,5-difluoro-4-(6-((2-fluoro-4-((1-methyl-2-oxo-1,2-dihydropyridin-4-yl)ethynyl)benzyl)oxy)pyridin-2-yl)benzyl)-1-(oxetan-2-ylmethyl)-1H-benzo[d]imidazole-6-carboxylic acid]"
12,43.3,"Cn1nc(COc2cccc(-c3cc(F)c(Cc4nc5ccc(C(=O)O)cc5n4C[C@@H]4CCO4)cc3F)n2)cc1C(N)=O [Example 206, (S)-2-(4-(6-((5-carbamoyl-1-methyl-1H-pyrazol-3-yl)methoxy)pyridin-2-yl)-2,5-difluorobenzyl)-1-(oxetan-2-ylmethyl)-1H-benzo[d]imidazole-6-carboxylic acid]"
13,0.257,"COc1nnc(COc2cc(-c3cc(F)c(Cc4nc5c(F)cc(C(=O)O)cc5n4C[C@@H]4CCO4)cc3F)ccc2F)s1 [Example 389, (S)-4-fluoro-1-(oxetan-2-ylmethyl)-2-((2,4′,5-trifluoro-3′-((5-methoxy-1,3,4-thiadiazol-2-yl)methoxy)-[1,1′-biphenyl]-4-yl)methyl)-1H-benzo[d]imidazole-6-carboxylic acid]"
14,0.164,"CNC(=O)c1cc(Cl)c(COc2cccc(-c3cc(F)c(Cc4nc5c(F)cc(C(=O)O)cc5n4[C@@H]4COCC4(C)C)cc3F)n2)cn1 [Example 365, (S)-2-(4-(6-((4-chloro-6-(methylcarbamoyl)pyridin-3-yl)methoxy)pyridin-2-yl)-2,5-difluorobenzyl)-1-(4,4-dimethyltetrahydrofuran-3-yl)-4-fluoro-1H-benzo[d]imidazole-6-carboxylic acid]"
